The values that follow come from paper PMC3946276 (European journal of pharmacology, 2013).

In the assay the target is T1, G-protein coupled receptor 30 (GPR30) (Rattus norvegicus, UniProt O08878).
T1 sequence (O08878 1-375): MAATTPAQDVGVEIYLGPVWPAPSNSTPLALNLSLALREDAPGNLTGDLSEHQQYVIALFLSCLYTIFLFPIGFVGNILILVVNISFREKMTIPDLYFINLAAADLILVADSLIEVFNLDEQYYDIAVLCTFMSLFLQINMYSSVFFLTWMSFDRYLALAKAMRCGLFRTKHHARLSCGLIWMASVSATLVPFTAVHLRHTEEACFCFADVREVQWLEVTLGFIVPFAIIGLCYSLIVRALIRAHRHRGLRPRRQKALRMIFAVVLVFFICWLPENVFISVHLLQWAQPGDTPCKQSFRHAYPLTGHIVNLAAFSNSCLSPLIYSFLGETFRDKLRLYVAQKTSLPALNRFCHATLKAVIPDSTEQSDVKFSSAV
Nature of the assay: [3H]2ME2 saturation radioligand binding on WB cell membranes.

In general, Kd refers to the free concentration of one partner at which half of the binding sites on the other are occupied at equilibrium, for simple one-to-one binding. A low value points to higher affinity. `COc1cc2c(cc1O)CC[C@@H]1[C@@H]2CC[C@]2(C)[C@@H](O)CC[C@@H]12` [2ME2, 2-methoxyestradiol] yielded a Kd of roughly 10.1 nM.
